The text below walks through data of US12071441B2, “10-(di(phenyl)methyl)-4-hydroxy-8,9,9A,10-tetrahydro-7H-pyrrolo[1′,2′:4,5]pyrazino[1,2-b]pyridazine-3,5-dione derivatives and related compounds as inhibitors of the orthomyxovirus replication for treating influenza” (Novartis AG, priority 2018, dated 2024).

What all share (assay): microbe, parasite or virus in culture
Common to all, as to type: cell-based

Assay [1] relates to influenza A virus minigenome (PB2, PB1, PA, NP; luciferase reporter) in 293T cells, RNP_Alaska. Particulars: HEK-293T, 48 h.
In assay [2] the test system is influenza A virus minigenome (PB2, PB1, PA, NP; luciferase reporter) in 293T cells, RNP_CAL. Particulars: HEK-293T, 48 h, read-out: RNP_CAL_EC50.
The subject of assay [3] is influenza A virus minigenome (PB2, PB1, PA, NP; luciferase reporter) in 293T cells, RNP_Hubei. Particulars: HEK-293T, 48 h.

On to `O=C1c2c(O)c(=O)cnn2[C@@H]([C@@H](c2ccc(F)cc2)c2cccc(C(F)(F)F)c2)[C@H]2CCCN12` [Example 1, (9aR,10S)-10-((S)-(4-fluorophenyl)(3-(trifluoromethyl)phenyl)methyl)-4-hydroxy-8,9,9a,10-tetrahydro-7H-pyrrolo[1′,2′:4,5]pyrazino[1,2-b]pyridazine-3,5-dione], for which the EC50 in assay [1], in assay [2] and in assay [3] was < 100 nM each time.
Regarding `O=C1c2c(O)c(=O)cnn2[C@@H]([C@@H](c2ccc(F)cc2)c2ccc(C(F)(F)F)cc2)[C@H]2CCCN12` [Example 2, (9aR,10S)-10-((R)-(4-fluorophenyl)(4-(trifluoromethyl)phenyl)methyl)-4-hydroxy-8,9,9a,10-tetrahydro-7H-pyrrolo[1′,2′:4,5]pyrazino[1,2-b]pyridazine-3,5-dione], the EC50 in assay [1], in assay [2] and in assay [3] was 100 to 1000 nM each time.
On to `O=C1c2c(O)c(=O)cnn2[C@@H]([C@H](c2cccc(C(F)(F)F)c2)c2cccc(F)c2F)[C@H]2CCCN12` [Example 3, (9aR,10S)-10-((R)-(2,3-difluorophenyl)(3-(trifluoromethyl)phenyl)methyl)-4-hydroxy-8,9,9a,10-tetrahydro-7H-pyrrolo[1′,2′:4,5]pyrazino[1,2-b]pyridazine-3,5-dione], for which the EC50 in assay [1], in assay [2] and in assay [3] was < 100 nM in each case.
In the case of `O=C1c2c(O)c(=O)cnn2[C@@H]([C@@H](c2ccc(F)cc2)c2cccc(OC(F)(F)F)c2)[C@H]2CCCN12` [Example 4, (9aR,10S)-10-((S)-(4-fluorophenyl)(3-(trifluoromethoxy)phenyl)methyl)-4-hydroxy-8,9,9a,10-tetrahydro-7H-pyrrolo[1′,2′:4,5]pyrazino[1,2-b]pyridazine-3,5-dione], the EC50 in assay [1] was 100 to 1000 nM; in assay [2] it was < 100 nM; in assay [3] it was < 100 nM.
For `COc1c2n(ncc1=O)[C@@H]([C@H](c1ccccc1)c1cccc(F)c1F)[C@H]1CCCN1C2=O` [Example 38, (9aR,10S)-10-((R)-(2,3-difluorophenyl)(phenyl)methyl)-4-methoxy-8,9,9a,10-tetrahydro-7H-pyrrolo[1′,2′:4,5]pyrazino[1,2-b]pyridazine-3,5-dione], the EC50 in assay [1] and in assay [3] was ≥ 1000 nM each time.
On to `COC(C)(C)C(=O)OCOc1c2n(ncc1=O)[C@@H]([C@H](c1ccccc1)c1cccc(F)c1F)[C@H]1CCCN1C2=O` [Example 41, (((9aR,10S)-10-((R)-(2,3-difluorophenyl)(phenyl)methyl)-3,5-dioxo-3,5,8,9,9a,10-hexahydro-7H-pyrrolo[1′,2′:4,5]pyrazino[1,2-b]pyridazin-4-yl)oxy)methyl 2-methoxy-2-methylpropanoate], for which the EC50 in assay [1] and in assay [3] was < 100 nM throughout.
For the compound `COCCOC(=O)OCOc1c2n(ncc1=O)[C@@H]([C@H](c1ccccc1)c1cccc(F)c1F)[C@H]1CCCN1C2=O` [Example 46, (((9aR,10S)-10-((R)-(2,3-difluorophenyl)(phenyl)methyl)-3,5-dioxo-3,5,8,9,9a,10-hexahydro-7H-pyrrolo[1′,2′:4,5]pyrazino[1,2-b]pyridazin-4-yl)oxy)methyl (2-methoxyethyl) carbonate], the EC50 in assay [1] and in assay [3] was ≥ 1000 nM each time.
Turning to `CCN(C)C(=O)Oc1c2n(ncc1=O)[C@@H]([C@H](c1ccccc1)c1cccc(F)c1F)[C@H]1CCCN1C2=O` [Example 47, (9aR,10S)-10-((R)-(2,3-difluorophenyl)(phenyl)methyl)-3,5-dioxo-3,5,8,9,9a,10-hexahydro-7H-pyrrolo[1′,2′:4,5]pyrazino[1,2-b]pyridazin-4-yl ethyl(methyl)carbamate], the EC50 in assay [1] and in assay [3] was ≥ 1000 nM in each case.
For the compound `COC(=O)Oc1c2n(ncc1=O)[C@@H]([C@H](c1ccccc1)c1cccc(F)c1F)[C@H]1CCCN1C2=O` [Example 54, (9aR,10S)-10-((R)-(2,3-difluorophenyl)(phenyl)methyl)-3,5-dioxo-3,5,8,9,9a,10-hexahydro-7H-pyrrolo[1′,2′:4,5]pyrazino[1,2-b]pyridazin-4-yl methyl carbonate], the EC50 in assay [1] and in assay [3] was < 100 nM each time.
For the compound `COCCC(=O)OCOc1c2n(ncc1=O)[C@@H]([C@H](c1ccccc1)c1cccc(F)c1F)[C@H]1CCCN1C2=O` [Example 64, (((9aR,10S)-10-((R)-(2,3-difluorophenyl)(phenyl)methyl)-3,5-dioxo-3,5,8,9,9a,10-hexahydro-7H-pyrrolo[1′,2′:4,5]pyrazino[1,2-b]pyridazin-4-yl)oxy)methyl 3-methoxypropanoate], the EC50 in assay [1] and in assay [3] was ≥ 1000 nM throughout.
Take `O=C(Oc1c2n(ncc1=O)[C@@H]([C@H](c1ccccc1)c1cccc(F)c1F)[C@H]1CCCN1C2=O)N1CCC(N2CCCCC2)CC1` [Example 65, (9aR,10S)-10-((R)-(2,3-difluorophenyl)(phenyl)methyl)-3,5-dioxo-3,5,8,9,9a,10-hexahydro-7H-pyrrolo[1′,2′:4,5]pyrazino[1,2-b]pyridazin-4-yl [1,4′-bipiperidine]-1′-carboxylate]: the EC50 in assay [1] and in assay [3] was ≥ 1000 nM each time.
Consider `O=C(Oc1c2n(ncc1=O)[C@@H]([C@H](c1ccccc1)c1cccc(F)c1F)[C@H]1CCCN1C2=O)N1CCOCC1` [Example 66, (9aR,10S)-10-((R)-(2,3-difluorophenyl)(phenyl)methyl)-3,5-dioxo-3,5,8,9,9a,10-hexahydro-7H-pyrrolo[1′,2′:4,5]pyrazino[1,2-b]pyridazin-4-yl morpholine-4-carboxylate], for which the EC50 in assay [1] and in assay [3] was ≥ 1000 nM each time.
For `COc1c2n(ncc1=O)[C@@H]([C@H](c1ccc(F)cc1)c1cccc(F)c1F)[C@H]1CCCN1C2=O` [Example 81, (9aR,10S)-10-((R)-(2,3-difluorophenyl)(4-fluorophenyl)methyl)-4-methoxy-8,9,9a,10-tetrahydro-7H-pyrrolo[1′,2′:4,5]pyrazino[1,2-b]pyridazine-3,5-dione], the EC50 in assay [1] and in assay [3] was ≥ 1000 nM throughout.
`CN(C)C(=O)Oc1c2n(ncc1=O)[C@@H]([C@H](c1ccc(F)cc1)c1cccc(F)c1F)[C@H]1CCCN1C2=O` [Example 87, (9aR,10S)-10-((R)-(2,3-difluorophenyl)(4-fluorophenyl)methyl)-3,5-dioxo-3,5,8,9,9a,10-hexahydro-7H-pyrrolo[1′,2′:4,5]pyrazino[1,2-b]pyridazin-4-yl dimethylcarbamate]: the EC50 in assay [1] and in assay [3] was ≥ 1000 nM each time.
Turning to `CC(C)OC(=O)OCOc1c2n(ncc1=O)[C@@H]([C@H](c1ccc(F)cc1)c1cccc(F)c1F)[C@H]1CCCN1C2=O` [Example 89, (((9aR,10S)-10-((R)-(2,3-difluorophenyl)(4-fluorophenyl)methyl)-3,5-dioxo-3,5,8,9,9a,10-hexahydro-7H-pyrrolo[1′,2′:4,5]pyrazino[1,2-b]pyridazin-4-yl)oxy)methyl isopropyl carbonate], the EC50 in assay [1] and in assay [3] was < 100 nM in each case.
In the case of `COC(C)(C)C(=O)Oc1c2n(ncc1=O)[C@@H]([C@H](c1ccc(F)cc1)c1cccc(F)c1F)[C@H]1CCCN1C2=O` [Example 90, (9aR,10S)-10-((R)-(2,3-difluorophenyl)(4-fluorophenyl)methyl)-3,5-dioxo-3,5,8,9,9a,10-hexahydro-7H-pyrrolo[1′,2′:4,5]pyrazino[1,2-b]pyridazin-4-yl 2-methoxy-2-methylpropanoate], the EC50 in assay [1] and in assay [3] was < 100 nM each time.
For `CC(C)(C)OC(=O)OCOc1c2n(ncc1=O)[C@@H]([C@H](c1ccc(F)cc1)c1cccc(F)c1F)[C@H]1CCCN1C2=O` [Example 91, tert-butyl ((((9aR,10S)-10-((R)-(2,3-difluorophenyl)(4-fluorophenyl)methyl)-3,5-dioxo-3,5,8,9,9a,10-hexahydro-7H-pyrrolo[1′,2′:4,5]pyrazino[1,2-b]pyridazin-4-yl)oxy)methyl) carbonate], the EC50 in assay [1] and in assay [3] was < 100 nM in each case.
Turning to `CN(C)C(=O)OCOc1c2n(ncc1=O)[C@@H]([C@H](c1cccc(F)c1)c1cccc(F)c1F)[C@H]1CCCN1C2=O` [Example 101, (((9aR,10S)-10-((R)-(2,3-difluorophenyl)(3-fluorophenyl)methyl)-3,5-dioxo-3,5,8,9,9a,10-hexahydro-7H-pyrrolo[1′,2′:4,5]pyrazino[1,2-b]pyridazin-4-yl)oxy)methyl dimethylcarbamate], the EC50 is ≥ 1000 nM in assay [1] and 100 to 1000 nM in assay [3].
The corresponding values for `CC(C)OC(=O)Oc1c2n(ncc1=O)[C@@H]([C@H](c1cccc(F)c1)c1cccc(F)c1F)[C@H]1CCCN1C2=O` [Example 103, (9aR,10S)-10-((R)-(2,3-difluorophenyl)(3-fluorophenyl)methyl)-3,5-dioxo-3,5,8,9,9a,10-hexahydro-7H-pyrrolo[1′,2′:4,5]pyrazino[1,2-b]pyridazin-4-yl isopropyl carbonate] are < 100 nM and < 100 nM.
With `CC(C)(C)C(=O)OCOc1c2n(ncc1=O)[C@@H]([C@H](c1cccc(F)c1)c1cccc(F)c1F)[C@H]1CCCN1C2=O` [Example 109, (((9aR,10S)-10-((R)-(2,3-difluorophenyl)(3-fluorophenyl)methyl)-3,5-dioxo-3,5,8,9,9a,10-hexahydro-7H-pyrrolo[1′,2′:4,5]pyrazino[1,2-b]pyridazin-4-yl)oxy)methyl pivalate], the EC50 in assay [1] and in assay [3] was < 100 nM in each case.
Consider `CC(C)(C)C(=O)Oc1c2n(ncc1=O)[C@@H]([C@H](c1cccc(F)c1)c1cccc(F)c1F)[C@H]1CCCN1C2=O` [Example 111, (9aR,10S)-10-((R)-(2,3-difluorophenyl)(3-fluorophenyl)methyl)-3,5-dioxo-3,5,8,9,9a,10-hexahydro-7H-pyrrolo[1′,2′:4,5]pyrazino[1,2-b]pyridazin-4-yl pivalate], for which the EC50 in assay [1] and in assay [3] was < 100 nM throughout.
